Measured values: EP0063238A1, “An efficiency-improving agent for feed and a preventive and treating agent for coccidiosis” (KAKEN PHARMACEUTICAL CO., LTD., priority 1981, dated 1982)

Columns and labels:
[1] = Feed efficiency test on domestic fowls; assay type: in vivo; conditions: 70 days; for The average increase in the body weight during the test period / The average ingested amount of feed during the test period: chickens; for The rate of feed requirement: ingested feed / body weight increase; for The improved ratio of the rate of feed requirement: versus no addition
Experimental: Feed efficiency test on domestic fowls
Domestic fowls tested: species used exclusively for broiler (Aber Acres species) Basal feed:
Method: • Fifty newborn chickens were divided into 5 groups of 10 each in such a way that the average body weight is the same in each group. Premixes of 5057A and 5057B were added to the foregoing basal feed so that the contents of 5057A and 5057B are .40 ppm and 80 ppm, respectively. This feed was administered to the animals over the period of 70 days, and the body weight and the ingested amount of the feed were measured.

[2] = Feed efficiency test on swine; assay type: in vivo, swine (landrace); conditions: for The rate of feed requirement / The average increase in the body weight during the test period / The average ingested amount of feed during the test period / The improved ratio of the rate of feed requirement: 12 weeks; for The average increase in the body weight during the test period / The average ingested amount of feed during the test period: young pigs; for The improved ratio of the rate of feed requirement: versus no addition; for The total number of days of diarrheal stool in each group / The total number of days during the test period in each group: 6 pigs, period of 4 weeks
Experimental: Feed efficiency test on swine
Method: • Thirty young pigs were divided into 5 groups of 6 each in such a way that the average body weight is the same in each group. To the basal feed were added 0, 25, and 50 ppm each of 5057A and 5057B. The resulting basal feeds were administered over the period of 12 weeks and the body weight and the ingested amount of the feeds were measured. The total number of days that the pigs suffered from diarrhea during the period of 4 weeks was counted.

[3] = Feed efficiency test on a ruminant; assay type: in vivo, Cattle (Holstein); conditions: 240 days; for The average increase in the body weight during the test period: castrated Holstein oxen; for The improved ratio of the rate of concentrated feed requirement: versus no addition
Experimental: Feed efficiency test on a ruminant Cattle tested: Holstein
Basal feed: • Concentrated feed: [formula]
(§1) Method: • Twenty five castrated Holstein oxen 9 months of age were divided into 5 groups of 5 each in such a way that the average body weight is almost the same in each group. Concentrated basal feeds to which 0, 10, and 20 ppm each of 5057A and 5057B had been added were each administered over the period of 240 days. As a crude feed, 1 kg per animal of straw of rice plants were administered.

[4] = Propionic acid/acetic acid ratio in gastric juice from the rumen of the oxen tested; assay type: in vivo, Cattle (Holstein); conditions: for The propionic acid concentration/The acetic acid concentration (the average value): rumen gastric juice; for ratio between propionic acid/acetic acid in the gastric juice in the rumen: as compared with the case of no addition
Experimental: as §1
The administration of the feeds to which the present substances had been added improved the utilization rate of the concentrated feed by 10 - 17% and the increased amount of the body weight by 3 - 8%. The gastric juice from the rumen of the oxen tested was collected and measured for the concentrations of acetic and propionic acids, thus the ratio between them being calculated.

Eimeria tenellum = assay: Preventive and treating activity against coccidiosis in a domestic fowl; assay type: in vivo; conditions: for Relation rate of the increase in the body weight: noninfection control = 100; for OPG: number of oocysts in 1 g of stool, 7 days after the inoculation; for Death rate: white leghorn chickens inoculated p.o. with oocysts; for preventive and treating activity against coccidiosis: conclusion in text from Table 5
Experimental: The preventive and treating activity against coccidiosis in a domestic fowl Domestic fowls tested: white leghorns Basal feed:
Method: • Fifty male white leghorn chickensl4 days of age were divided into 5 groups of 10 each. To the basal feed were added 50 and 100 ppm each of 5057A and 5057B. Infection with coccidiosis was done by inoculating […] per chicken of spore-forming oocysts of Eimeria tenellum directly p.o. into the crop of the chickens.
Groupsl - 4 were reared with the feeds containing predetermined concentrations of the 5057 substances, starting from 1 day before the inoculation with oocysts. Group 5 is an infection control that was inoculated with oocysts and reared with the basal feed containing no agents tested and Group 6 is a noninfection control. After 7 days after the inoculation with oocysts, the number of oocysts (OPG) in 1 g of stool was counted.

Acute toxicity test = conditions: mouse, in vivo, mice
Experimental: An acute toxicity test was carried out with mice. As a result, the LD50 value of the 5057A and 5057B substances is 50 mg/kg i.p. and 50 mg/kg or more p.o. [drawing 14] [drawing 15]

[5] = 10 ppm, 1 day after the administration
[6] = 10 ppm, 21 days after the administration
[7] = 10 ppm, 56 days after the administration
[8] = 20 ppm, 1 day after the administration
[9] = 20 ppm, 21 days after the administration
[10] = 20 ppm, 56 days after the administration

Which “The average increase in the body weight during the test period” value (shortened to “The average increase”) ([1]; 40 ppm in feed) does the source give for `CCC(C(=O)C(C)C(O)C(C)C1OC(O)(C(C)C(=O)O)C(C)CC1C)C1OC(C)(C2(O)OC(CC)(C(C)O)CC2C)CC1C` (stereo not drawn) [5057A] here?
The value was 2.54 kg.

And the “The average ingested amount of feed during the test period” value ([1]; 40 ppm in feed)?
The value was 5.59 kg.

What about the “The rate of feed requirement” value ([1]; 40 ppm in feed) of the same compound?
Its value is 2.201.

And the “The improved ratio of the rate of feed requirement” value ([1]; 40 ppm in feed)?
The value was 4.3%.

And the “The average increase” value ([1]; 80 ppm in feed)?
The value was 2.55 kg.

What about the “The average ingested amount of feed during the test period” value ([1]; 80 ppm in feed) of the same compound?
Its value is 5.63 kg.

And the “The rate of feed requirement” value ([1]; 80 ppm in feed)?
Its value is 2.218.

And the “The improved ratio of the rate of feed requirement” value ([1]; 80 ppm in feed)?
Its value is 4.0%.

What about the “The rate of feed requirement” value ([2]; 25 ppm in feed) of the same compound?
Its value is 2.353.

What about the “The average increase” value ([2]; 25 ppm in feed) of the same compound?
Its value is 45.35 kg.

And the “The average ingested amount of feed during the test period” value ([2]; 25 ppm in feed)?
The value was 106.7 kg.

What about the “The improved ratio of the rate of feed requirement” value ([2]; 25 ppm in feed) of the same compound?
The value was 4.3%.

What about the “The total number of days of diarrheal stool in each group / The total number of days during the test period in each group” value ([2]; 25 ppm in feed) of the same compound?
Its value is 21/168.

What about the “The rate of feed requirement” value ([2]; 50 ppm in feed) of the same compound?
Its value is 2.287.

What about the “The average increase” value ([2]; 50 ppm in feed) of the same compound?
The value was 50.93 kg.

And the “The average ingested amount of feed during the test period” value ([2]; 50 ppm in feed)?
Its value is 116.5 kg.

What about the “The improved ratio of the rate of feed requirement” value ([2]; 50 ppm in feed) of the same compound?
Its value is 7.0%.

What about the “The total number of days of diarrheal stool in each group / The total number of days during the test period in each group” value ([2]; 50 ppm in feed) of the same compound?
Its value is 11/168.

What about the “The average ingested amount of concentrated feed during the test period” value ([3]; 10 ppm in concentrated feed) of the same compound?
The value was 2413 kg.

What about the “The rate of concentrated feed requirement” value ([3]; 10 ppm in concentrated feed) of the same compound?
The value was 8.904.

And the “The average increase” value ([3]; 10 ppm in concentrated feed)?
The value was 271 kg.

What about the “The improved ratio of the rate of concentrated feed requirement” value ([3]; 10 ppm in concentrated feed) of the same compound?
The value was 10.2%.

What about the “The average ingested amount of concentrated feed during the test period” value ([3]; 20 ppm in concentrated feed) of the same compound?
The value was 2365 kg.

And the “The rate of concentrated feed requirement” value ([3]; 20 ppm in concentrated feed)?
The value was 8.446.

And the “The average increase” value ([3]; 20 ppm in concentrated feed)?
Its value is 280 kg.

And the “The improved ratio of the rate of concentrated feed requirement” value ([3]; 20 ppm in concentrated feed)?
Its value is 14.8%.

And the “The propionic acid concentration/The acetic acid concentration (the average value)” value [4, 5]?
Its value is 0.80.

And the “The propionic acid concentration/The acetic acid concentration (the average value)” value [4, 6]?
The value was 0.73.

What about the “The propionic acid concentration/The acetic acid concentration (the average value)” value [4, 7] of the same compound?
The value was 0.78.

What about the “The propionic acid concentration/The acetic acid concentration (the average value)” value [4, 8] of the same compound?
The value was 0.83.

And the “The propionic acid concentration/The acetic acid concentration (the average value)” value [4, 9]?
Its value is 0.96.

And the “The propionic acid concentration/The acetic acid concentration (the average value)” value [4, 10]?
Its value is 0.86.

And the “ratio between propionic acid/acetic acid in the gastric juice in the rumen” value [4]?
The value was “increases”.

What about the “Relation rate of the increase in the body weight” value (Eimeria tenellum; 50 ppm in feed) of the same compound?
The value was 104%.

What about the OPG (Eimeria tenellum; 50 ppm in feed) of the same compound?
Its OPG is 0.01 x 10^4.

And the Death rate (Eimeria tenellum; 50 ppm in feed)?
The Death rate was 0%.

And the “Relation rate of the increase in the body weight” value (Eimeria tenellum; 100 ppm in feed)?
Its value is 103%.

What about the OPG (Eimeria tenellum; 100 ppm in feed) of the same compound?
Its OPG is 0 x 10^4.

And the Death rate (Eimeria tenellum; 100 ppm in feed)?
The Death rate was 0%.

What about the “preventive and treating activity against coccidiosis” value (Eimeria tenellum) of the same compound?
The value was “have a preventive and treating activity against coccidiosis”.

What about the LD50 (Acute toxicity test; ip) of the same compound?
The LD50 was 50 mg/kg.

What about the LD50 (Acute toxicity test; po) of the same compound?
The LD50 was at least 50 mg/kg.

What does the source list for `CCC(C(=O)C(C)C(O)C(C)C1OC(O)(C(C)C(=O)O)C(C)CC1C)C1OC(C)(C2(O)OC(CC)(C(O)CC)CC2C)CC1C` (stereo not drawn) [5057B]?
The average increase in the body weight during the test period ([1]; 40 ppm in feed): 2.67 kg; The average ingested amount of feed during the test period ([1]; 40 ppm in feed): 5.74 kg; The rate of feed requirement ([1]; 40 ppm in feed): 2.150; The improved ratio of the rate of feed requirement ([1]; 40 ppm in feed): 6.6%; The average increase in the body weight during the test period ([1]; 80 ppm in feed): 2.62 kg; The average ingested amount of feed during the test period ([1]; 80 ppm in feed): 5.67 kg; The rate of feed requirement ([1]; 80 ppm in feed): 2.164; The improved ratio of the rate of feed requirement ([1]; 80 ppm in feed): 6.0%; The rate of feed requirement ([2]; 25 ppm in feed): 2.348; The average increase in the body weight during the test period ([2]; 25 ppm in feed): 47.62 kg; The average ingested amount of feed during the test period ([2]; 25 ppm in feed): 111.8 kg; The improved ratio of the rate of feed requirement ([2]; 25 ppm in feed): 4.6%; The total number of days of diarrheal stool in each group / The total number of days during the test period in each group ([2]; 25 ppm in feed): 18/168; The rate of feed requirement ([2]; 50 ppm in feed): 2.263; The average increase in the body weight during the test period ([2]; 50 ppm in feed): 51.26 kg; The average ingested amount of feed during the test period ([2]; 50 ppm in feed): 116.0 kg; The improved ratio of the rate of feed requirement ([2]; 50 ppm in feed): 8.0%; The total number of days of diarrheal stool in each group / The total number of days during the test period in each group ([2]; 50 ppm in feed): 6/168; The average ingested amount of concentrated feed during the test period ([3]; 10 ppm in concentrated feed): 2406 kg; The rate of concentrated feed requirement ([3]; 10 ppm in concentrated feed): 8.813; The average increase in the body weight during the test period ([3]; 10 ppm in concentrated feed): 273 kg; The improved ratio of the rate of concentrated feed requirement ([3]; 10 ppm in concentrated feed): 11.1%; The average ingested amount of concentrated feed during the test period ([3]; 20 ppm in concentrated feed): 2354 kg; The rate of concentrated feed requirement ([3]; 20 ppm in concentrated feed): 8.289; The average increase in the body weight during the test period ([3]; 20 ppm in concentrated feed): 284 kg; The improved ratio of the rate of concentrated feed requirement ([3]; 20 ppm in concentrated feed): 16.4%; The propionic acid concentration/The acetic acid concentration (the average value) [4, 5]: 0.79; The propionic acid concentration/The acetic acid concentration (the average value) [4, 6]: 0.76; The propionic acid concentration/The acetic acid concentration (the average value) [4, 7]: 0.77; The propionic acid concentration/The acetic acid concentration (the average value) [4, 8]: 0.83; The propionic acid concentration/The acetic acid concentration (the average value) [4, 9]: 1.00; The propionic acid concentration/The acetic acid concentration (the average value) [4, 10]: 0.93; ratio between propionic acid/acetic acid in the gastric juice in the rumen [4]: increases; Relation rate of the increase in the body weight (Eimeria tenellum; 50 ppm in feed): 106%; OPG (Eimeria tenellum; 50 ppm in feed): 0 x 10^4; Death rate (Eimeria tenellum; 50 ppm in feed): 0%; Relation rate of the increase in the body weight (Eimeria tenellum; 100 ppm in feed): 106%; OPG (Eimeria tenellum; 100 ppm in feed): 0 x 10^4; Death rate (Eimeria tenellum; 100 ppm in feed): 0%; preventive and treating activity against coccidiosis (Eimeria tenellum): have a preventive and treating activity against coccidiosis; LD50 (Acute toxicity test; ip): 50 mg/kg; LD50 (Acute toxicity test; po): ≥ 50 mg/kg
